Measurements reported in patent publication US20130267484A1, “TREATMENT OF RHEUMATOID ARTHRITIS WITH MASITINIB” (AB SCIENCE, priority 2010, published 2013).

Test system: DMARD-refractory active RA
Assay: Phase 2a trial of masitinib in DMARD-refractory active RA: efficacy (ACR, ACRn, CRP, DAS28)
Assay type: in vivo, Human
Design: ACRn Mean ± SD / ACRn Median: unit not given here
From the text: The main exclusion criteria were patients with: inadequate bone marrow function, defined as an absolute neutrophil count ≦2.5×10^9/litre, and platelets ≦100×10^9/litre; active current infection, history of infection requiring hospitalisation, history of recurrent infections, or treatment with antibiotics within 2 weeks of screening. Treatment wash-out periods observed prior to entry to the study were: a) DMARD use within 4 weeks; b) five half-lives, or wash-out in accordance for a specific drug, whichever is longer; c) any live (attenuated) vaccines taken within 4 weeks; d) use of more than one NSAID or its dosage change within 4 weeks; e) prednisone or equivalent corticosteroid dosage >10 mg/day or any dosage change within 4 weeks; and f) prednisone or equivalent corticosteroid dosage >20 mg administered via intra-articular injection, bolus intramuscular or intravenous treatment within 4 weeks. Other exclusion criteria included any previous use of recombinant interleukin-1 receptor antagonist (IL1-Ra) and patients who were pregnant or nursing.
Efficacy data are presented using descriptive statistics, contrasting initial dosage groups or according to previous DMARD failure. For comparison of groups according to initial dosage on a continuous variable, Student test (with Satterwhaite correction for unequal variance) or Wilcoxon test were used when normality was not rejected or rejected, respectively (normality determined via the Shapiro-Wilk test). For the same comparison on a qualitative variable, Chi-square or Fisher Exact test (if the Chi-square hypotheses were not filled) were used. The rate of patients achieving the various ACR response variables after 12 weeks of treatment (remission rate) are presented in terms of percentage and number of patients. Patients were assigned to either 3 or 6 mg/kg/day treatment groups based upon a randomisation schedule generated for packaging and labelling by the Biostatistics Section of AB Science. Individual treatment doses to be administered were supplied in sealed envelopes to be opened by the investigator at time of inclusion. Patients received the treatment from the investigator on an open basis.
Due to the relatively high patient drop-out rate of this study, analysis was conducted on two different datasets: one with an imputation of missing values according to the last observation carried forward (LOCF) methodology and the other in the absence of data imputation, i.e. the observed cases (OC). Analysis for efficacy was performed on a modified Intention-To-Treat (ITT) population and Per Protocol (PP) population. […] The PP population was defined as a subgroup of the ITT population that in addition had presented no major protocol deviations and had completed at least 28 days of treatment exposure.

[1] = Total population (n = 40), ITT population
[2] = W 24, extension phase, ITT population, n = 4
[3] = W 24, extension phase, ITT population, n = 7
[4] = W 36, extension phase, ITT population, n = 5
[5] = W 36, extension phase, ITT population, n = 9
[6] = W 36, extension phase, ITT population, n = 12
[7] = W 48, extension phase, ITT population, n = 6
[8] = W 48, extension phase, ITT population, n = 8
[9] = W 48, extension phase, ITT population, n = 9
[10] = W 60, extension phase, ITT population, n = 7
[11] = W 60, extension phase, ITT population, n = 8

Cc1ccc(NC(=O)c2ccc(CN3CCN(C)CC3)cc2)cc1Nc1nc(-c2cccnc2)cs1 [masitinib, 4-(4-methylpiperazin-1-ylmethyl)-N-[4-methyl-3-(4-pyridin-3ylthiazol-2-ylamino)phenyl]benzamide]
Non-responders (failed to reach ACR20) after dose augmentation (3 mg/kg/day group, 12 patients augmented at weeks 4 or 8): 42%
Patients with improved response after dose augmentation (3 mg/kg/day group, 12 patients augmented at weeks 4 or 8, initial 12-week phase): 58%
Dose response analyses: dose level (6 mg/kg/day): most potent
Highest response rate for the ACR50 threshold by dose at first response (5/15, dosage not given): 33.3%
Time to first response ACR20, Mean ± SD [1]: 46.3 ± 22.4 days
Time to first response ACR20, Median [1]: 35.0 days
Time to first response ACR20, Min-Max [1]: 28.0 to 105.0 days
Time to first response ACR50, Mean ± SD [1]: 89.1 ± 58.2 days
Time to first response ACR50, Median [1]: 84.0 days
Time to first response ACR50, Min-Max [1]: 28.0 to 217.0 days
DAS28 <2.6, patients (W 12, ITT population, n = 24): 1 (4.%)
DAS28 Mean ± SD (W 12, ITT population, n = 24): 4.6 ± 1.3
DAS28 Median (W 12, ITT population, n = 24): 4.4
DAS28 Min-Max (W 12, ITT population, n = 24): 0.5-7.0
DAS28 ≦3.2, patients (W 12, ITT population, n = 24): 1 (4%)
ACR20, patients reaching level (W 12, ITT population, n = 27): 15 (56%)
ACR50, patients reaching level (W 12, ITT population, n = 27): 9 (33%)
ACR70, patients reaching level (W 12, ITT population, n = 27): 3 (11%)
ACR90, patients reaching level (W 12, ITT population, n = 27): 0 (0%)
ACRn Mean ± SD (W 12, ITT population, n = 27): 31.6 ± 33.5
ACRn Median (W 12, ITT population, n = 27): 42.9
ACRn Min-Max (W 12, ITT population, n = 27): −40.0-87.5
CRP 0% < Improvement ≦25%, patients (W 12, ITT population, n = 28): 5 (18%)
CRP 25% < Improvement ≦50%, patients (W 12, ITT population, n = 28): 3 (11%)
CRP Deterioration, patients (W 12, ITT population, n = 28): 3 (11%)
CRP Improvement >50%, patients (W 12, ITT population, n = 28): 14 (50%)
CRP Stable, patients (W 12, ITT population, n = 28): 3 (11%)
DAS28 <2.6, patients [2]: 0 (0%)
DAS28 Mean ± SD [2]: 5.2 ± 1.7
DAS28 Median [2]: 4.9
DAS28 Min-Max [2]: 3.6-7.5
DAS28 ≦3.2, patients [2]: 0 (0%)
ACR20, patients reaching level [3]: 6 (86%)
ACR50, patients reaching level [3]: 2 (27%)
ACR70, patients reaching level [3]: 1 (14%)
ACR90, patients reaching level [3]: 0 (0%)
ACRn Mean ± SD [3]: 36.0 ± 29.0
ACRn Median [3]: 40.7
ACRn Min-Max [3]: −16.7-73.0
CRP 0% < Improvement ≦25%, patients [3]: 1 (14%)
CRP 25% < Improvement ≦50%, patients [3]: 0 (0%)
CRP Deterioration, patients [3]: 0 (0%)
CRP Improvement >50%, patients [3]: 5 (71%)
CRP Stable, patients [3]: 1 (14%)
DAS28 <2.6, patients [4]: 1 (20%)
DAS28 Mean ± SD [4]: 4.4 ± 1.9
DAS28 Median [4]: 4.1
DAS28 Min-Max [4]: 2.3-7.5
DAS28 ≦3.2, patients [4]: 1 (20%)
ACR20, patients reaching level [5]: 7 (78%)
ACR50, patients reaching level [5]: 4 (44%)
ACR70, patients reaching level [5]: 2 (22%)
ACR90, patients reaching level [5]: 1 (11%)
ACRn Mean ± SD [5]: 45.9 ± 32.3
ACRn Median [5]: 45.5
ACRn Min-Max [5]: −3.8-93.3
CRP 0% < Improvement ≦25%, patients [6]: 1 (8%)
CRP 25% < Improvement ≦50%, patients [6]: 1 (8%)
CRP Deterioration, patients [6]: 0 (0%)
CRP Improvement >50%, patients [6]: 9 (75%)
CRP Stable, patients [6]: 1 (8%)
DAS28 <2.6, patients [7]: 0 (0%)
DAS28 Mean ± SD [7]: 4.7 ± 2.1
DAS28 Median [7]: 4.4
DAS28 Min-Max [7]: 2.7-8.7
DAS28 ≦3.2, patients [7]: 2 (33%)
ACR20, patients reaching level [8]: 5 (63%)
ACR50, patients reaching level [8]: 3 (38%)
ACR70, patients reaching level [8]: 1 (13%)
ACR90, patients reaching level [8]: 0 (0%)
ACRn Mean ± SD [8]: 30.9 ± 36.7
ACRn Median [8]: 40.0
ACRn Min-Max [8]: −20.0-70.9
CRP 0% < Improvement ≦25%, patients [9]: 1 (11%)
CRP 25% < Improvement ≦50%, patients [9]: 0 (0%)
CRP Deterioration, patients [9]: 2 (22%)
CRP Improvement >50%, patients [9]: 6 (67%)
CRP Stable, patients [9]: 0 (0%)
CRP 0% < Improvement ≦25%, patients [10]: 1 (14%)
CRP 25% < Improvement ≦50%, patients [10]: 3 (43%)
CRP Deterioration, patients [10]: 0 (0%)
CRP Improvement >50%, patients [10]: 3 (43%)
CRP Stable, patients [10]: 0 (0%)
DAS28 <2.6, patients [10]: 4 (57%)
DAS28 Mean ± SD [10]: 3.3 ± 1.5
DAS28 Median [10]: 2.6
DAS28 Min-Max [10]: 1.7-5.3
DAS28 ≦3.2, patients [10]: 4 (57%)
ACR20, patients reaching level [11]: 6 (75%)
ACR50, patients reaching level [11]: 6 (75%)
ACR70, patients reaching level [11]: 3 (38%)
ACR90, patients reaching level [11]: 2 (25%)
ACRn Mean ± SD [11]: 58.3 ± 31.4
